From US6479054B1, “Process for obtaining genistin-rich isoflavone composition” (Showa Sangyo Co., Ltd., priority 1998, dated 2002)

Assay: Solubility of genistin in isoflavone containing eluate as a function of pH (FIG. 1)
Type: physicochemical
Source text: Concentrations of isoflavones in a supernatant are shown, making each isoflavone concentration at the time of elution 100.).

O=c1c(-c2ccc(O)cc2)coc2cc(O[C@@H]3O[C@H](CO)[C@@H](O)[C@H](O)[C@H]3O)cc(O)c12 [genistin]
solubility of genistin in an isoflavone containing eluate (pHs of not less than 10): extremely high
solubility of genistin in an isoflavone containing eluate (pHs of not more than 9.5): extremely low
